# Test results reported in patent US12503484B2, “Androstane derivatives with activity as pure or predominantly pure stimulators of SERCA2a for the treatment of heart failure” (Seismic Pharmaceuticals, priority 2019, dated 2025).
# Where a name gives a salt, the structure may show the parent alone.
# Experiments:
# STZ diabetic rats = assay: Haemodynamics in streptozotocin diabetic rats (echocardiography); assay type: in vivo, rat
# Description: CVie214 and CVie216 were tested in a diabetic rat model. Briefly, rats were injected with streptozotocin (STZ). After 7-9 weeks from STZ injection, rats were submitted to transthoracic echocardiographic and Doppler evaluation performed under urethane anesthesia. Two-dimensionally guided M-mode recordings were used to obtain short-axis measurements of left ventricular end-diastolic diameter (LVEDD), left ventricular end-systolic diameter (LVESD), posterior (PW) and septal (SW) diastolic wall thickness according to the American Society of Echocardiography guidelines (Lang R M et al., Eur J Echocardiography 2006, 7:79-108). Fractional shortening was calculated as FS=(LVEDD−LVESD)/LVEDD. Relative wall thickness was calculated as PWTd+IVSTd/LVEDD. Mitral inflow was measured by pulsed Doppler at the tips of mitral leaflets from an apical 4-chamber view to obtain early and late filling velocities (E, A) and deceleration time of early filling velocity (DT). The deceleration slope was calculated as E/DT ratio. The mitral deceleration index was calculated as DT/E ratio. Tissue Doppler Imaging (TDI) was evaluated from the apical 4-chamber view to record septal mitral annular movements, i.e., peak myocardial systolic (s′) and early and late diastolic velocity (e′ and a′).
# After baseline hemodynamic measurements were taken, the rats were administered Digoxin, CVie214, CVie216 and compared to control. Digoxin, used as reference drug, was intravenously infused at 0.11 mg/kg/min for 15 min and echocardiographic parameters measured after 1 h. CVie214-salt and CVie216-salt were intravenously infused in STZ diabetic rats at 0.2 mg/kg/min and echocardiographic parameters were measured after 15 min and 30 min.
# Tables 4-6 show the haemodynamic parameters in STZ diabetic rats for Digoxin, CVie214-salt, and Cvie216-salt.
# panel of receptors = assay: Radioligand binding to a panel of receptors (Eurofins); settings: 10 μM
# HMG-CoA Reductase = HMG-CoA Reductase (Homo sapiens (Human), UniProt P04035); assay: Receptor binding assay panel: HMG-CoA Reductase; assay type: biochemical
# Monoamine Oxidase MAO-B = Monoamine Oxidase MAO-B (Homo sapiens (Human), UniProt P27338); assay: Receptor binding assay panel: Monoamine Oxidase MAO-B; assay type: biochemical
# [1] = biological target: Protein Tyrosine Kinase, ABL1 (Homo sapiens (Human), UniProt P00519); assay: Receptor binding assay panel: Protein Tyrosine Kinase, ABL1; assay type: biochemical
# Adrenergic β1 = Adrenergic β1 (Homo sapiens (Human), UniProt P08588); assay: Receptor binding assay panel: Adrenergic β1
# Androgen (Testosterone) = Androgen (Testosterone) (Homo sapiens (Human), UniProt P10275); assay: Receptor binding assay panel: Androgen (Testosterone)
# Description: (§1) Radioligand binding to a panel of receptors was carried out by Eurofins on crude membrane preparations according to published procedures and by using appropriate reference standard (Eurofin, Taiwan, compound code CVie216-3 (1226840), study #TW04-0004235, quote #TW04-0004235-Q04, for Cvie Therapeutics Limited, Taiwan). […] was tested at the concentration of 10 μM.
# [2] = tested on: Calcium Channel L-type, Dihydropyridine; assay: Receptor binding assay panel: Calcium Channel L-type, Dihydropyridine; parameters: species or system rat; settings: 10 μM
# Dopamine D1 = Dopamine D1 (Homo sapiens (Human), UniProt P21728); assay: Receptor binding assay panel: Dopamine D1
# [3] = tested on: GABAA, Flunitrazepam, Central; assay: Receptor binding assay panel: GABAA, Flunitrazepam, Central; parameters: species or system rat; settings: 10 μM
# Description: as §1
# GABAA, Muscimol, Central = assay: Receptor binding assay panel: GABAA, Muscimol, Central; parameters: species or system rat; settings: 10 μM
# Description: as §1
# Glucocorticoid = Glucocorticoid (Homo sapiens (Human), UniProt P04150); assay: Receptor binding assay panel: Glucocorticoid
# Imidazoline I2, Central = assay: Receptor binding assay panel: Imidazoline I2, Central; parameters: species or system rat; settings: 10 μM
# Description: as §1
# Insulin = Insulin (Rattus norvegicus (Rat), UniProt P15127); assay: Receptor binding assay panel: Insulin
# Muscarinic M3 = Muscarinic M3 (Homo sapiens (Human), UniProt P20309); assay: Receptor binding assay panel: Muscarinic M3
# Description: as §1
# Opiate μ (OP3, MOP) = Opiate μ (OP3, MOP) (Homo sapiens (Human), UniProt P35372); assay: Receptor binding assay panel: Opiate μ (OP3, MOP)
# Description: as §1
# Phorbol Ester = assay: Receptor binding assay panel: Phorbol Ester; parameters: species or system mouse; settings: 10 μM
# Potassium Channel (KATP) = Potassium Channel (KATP) (Cricetus cricetus (Black-bellied hamster), UniProt Q09427); assay: Receptor binding assay panel: Potassium Channel (KATP)
# Description: as §1
# hERG potassium channel = hERG potassium channel (Homo sapiens (Human), UniProt Q12809); assay: Receptor binding assay panel: Potassium Channel hERG; settings: crude membrane preparations
# Description: as §1
# Progesterone PR-B = Progesterone PR-B (Homo sapiens (Human), UniProt P06401); assay: Receptor binding assay panel: Progesterone PR-B
# [4] = tested on: Serotonin (5-Hydroxytryptamine) 5-HT1, non selective; assay: Receptor binding assay panel: Serotonin (5-Hydroxytryptamine) 5-HT1, non selective; parameters: species or system rat; settings: 10 μM
# Sodium Channel, Site 2 = assay: Receptor binding assay panel: Sodium Channel, Site 2; parameters: species or system rat; settings: 10 μM
# [5] = biological target: Transporter, Norepinephrine (NET) (Homo sapiens (Human), UniProt P23975); assay: Receptor binding assay panel: Transporter, Norepinephrine (NET)
# Description: as §1
# CYP450, 19 (CYP19) = CYP450, 19 (CYP19) (Homo sapiens (Human), UniProt P11511); assay: Receptor binding assay panel: CYP450, 19
# [6] = after 15 min IV infusion 0.2 mg/kg/min
# [7] = after 30 min IV infusion 0.2 mg/kg/min
# Progesterone PR-B, sequence (P06401 whole entry): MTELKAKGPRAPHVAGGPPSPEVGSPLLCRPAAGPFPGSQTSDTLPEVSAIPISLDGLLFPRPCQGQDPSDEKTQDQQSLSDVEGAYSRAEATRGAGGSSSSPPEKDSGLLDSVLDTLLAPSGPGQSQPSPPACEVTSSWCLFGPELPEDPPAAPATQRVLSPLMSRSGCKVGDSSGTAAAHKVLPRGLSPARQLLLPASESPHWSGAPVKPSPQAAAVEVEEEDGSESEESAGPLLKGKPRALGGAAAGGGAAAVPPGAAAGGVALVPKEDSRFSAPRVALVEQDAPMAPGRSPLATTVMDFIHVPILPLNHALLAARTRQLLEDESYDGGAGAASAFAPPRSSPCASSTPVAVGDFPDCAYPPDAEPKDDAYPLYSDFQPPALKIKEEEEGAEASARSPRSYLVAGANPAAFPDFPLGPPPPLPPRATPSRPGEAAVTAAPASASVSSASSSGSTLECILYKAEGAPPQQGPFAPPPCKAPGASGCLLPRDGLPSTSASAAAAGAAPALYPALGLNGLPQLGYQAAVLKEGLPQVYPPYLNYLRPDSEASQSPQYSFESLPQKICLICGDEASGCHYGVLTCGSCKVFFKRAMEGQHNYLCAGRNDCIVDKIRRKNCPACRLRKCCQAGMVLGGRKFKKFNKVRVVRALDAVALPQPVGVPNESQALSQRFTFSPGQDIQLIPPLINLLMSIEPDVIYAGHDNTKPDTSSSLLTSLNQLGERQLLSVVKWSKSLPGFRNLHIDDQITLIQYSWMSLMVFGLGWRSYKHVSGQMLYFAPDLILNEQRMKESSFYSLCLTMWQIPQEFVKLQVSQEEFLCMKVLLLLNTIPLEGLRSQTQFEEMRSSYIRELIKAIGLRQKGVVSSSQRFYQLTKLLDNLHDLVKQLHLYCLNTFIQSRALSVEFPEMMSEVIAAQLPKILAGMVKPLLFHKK
# Glucocorticoid, sequence (P04150 whole entry): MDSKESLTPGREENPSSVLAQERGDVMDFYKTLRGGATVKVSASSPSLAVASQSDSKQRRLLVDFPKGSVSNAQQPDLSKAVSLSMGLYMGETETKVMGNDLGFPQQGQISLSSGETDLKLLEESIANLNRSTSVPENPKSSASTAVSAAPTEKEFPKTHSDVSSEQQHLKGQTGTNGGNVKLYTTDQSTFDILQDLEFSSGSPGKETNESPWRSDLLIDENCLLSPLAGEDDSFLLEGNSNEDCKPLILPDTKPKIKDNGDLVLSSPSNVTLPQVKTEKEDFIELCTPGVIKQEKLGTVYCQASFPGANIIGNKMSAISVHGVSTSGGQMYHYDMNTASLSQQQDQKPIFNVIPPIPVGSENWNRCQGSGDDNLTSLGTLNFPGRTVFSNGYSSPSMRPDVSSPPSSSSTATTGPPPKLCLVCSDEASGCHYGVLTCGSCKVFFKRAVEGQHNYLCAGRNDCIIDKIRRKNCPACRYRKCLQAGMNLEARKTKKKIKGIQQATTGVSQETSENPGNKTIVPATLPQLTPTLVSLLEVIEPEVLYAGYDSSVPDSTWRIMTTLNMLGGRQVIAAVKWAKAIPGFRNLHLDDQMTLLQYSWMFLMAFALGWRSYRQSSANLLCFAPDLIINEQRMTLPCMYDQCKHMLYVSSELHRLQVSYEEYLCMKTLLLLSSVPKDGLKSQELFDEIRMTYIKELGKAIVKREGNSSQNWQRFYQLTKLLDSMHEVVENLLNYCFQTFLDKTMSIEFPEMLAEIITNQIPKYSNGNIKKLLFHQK
# Adrenergic β1, sequence (P08588 whole entry): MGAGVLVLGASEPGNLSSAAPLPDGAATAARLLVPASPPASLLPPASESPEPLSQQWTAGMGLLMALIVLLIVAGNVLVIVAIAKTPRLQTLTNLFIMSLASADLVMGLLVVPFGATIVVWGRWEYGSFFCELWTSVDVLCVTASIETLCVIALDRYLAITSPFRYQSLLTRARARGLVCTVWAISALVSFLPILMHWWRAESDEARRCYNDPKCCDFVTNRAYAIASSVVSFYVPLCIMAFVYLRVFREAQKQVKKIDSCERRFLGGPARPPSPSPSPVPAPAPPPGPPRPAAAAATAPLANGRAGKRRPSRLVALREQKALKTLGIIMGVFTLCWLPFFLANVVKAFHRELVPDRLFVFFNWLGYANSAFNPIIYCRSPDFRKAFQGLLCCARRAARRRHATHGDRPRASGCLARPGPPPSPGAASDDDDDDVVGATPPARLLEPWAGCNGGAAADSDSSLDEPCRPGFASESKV
# hERG potassium channel, sequence (Q12809 whole entry): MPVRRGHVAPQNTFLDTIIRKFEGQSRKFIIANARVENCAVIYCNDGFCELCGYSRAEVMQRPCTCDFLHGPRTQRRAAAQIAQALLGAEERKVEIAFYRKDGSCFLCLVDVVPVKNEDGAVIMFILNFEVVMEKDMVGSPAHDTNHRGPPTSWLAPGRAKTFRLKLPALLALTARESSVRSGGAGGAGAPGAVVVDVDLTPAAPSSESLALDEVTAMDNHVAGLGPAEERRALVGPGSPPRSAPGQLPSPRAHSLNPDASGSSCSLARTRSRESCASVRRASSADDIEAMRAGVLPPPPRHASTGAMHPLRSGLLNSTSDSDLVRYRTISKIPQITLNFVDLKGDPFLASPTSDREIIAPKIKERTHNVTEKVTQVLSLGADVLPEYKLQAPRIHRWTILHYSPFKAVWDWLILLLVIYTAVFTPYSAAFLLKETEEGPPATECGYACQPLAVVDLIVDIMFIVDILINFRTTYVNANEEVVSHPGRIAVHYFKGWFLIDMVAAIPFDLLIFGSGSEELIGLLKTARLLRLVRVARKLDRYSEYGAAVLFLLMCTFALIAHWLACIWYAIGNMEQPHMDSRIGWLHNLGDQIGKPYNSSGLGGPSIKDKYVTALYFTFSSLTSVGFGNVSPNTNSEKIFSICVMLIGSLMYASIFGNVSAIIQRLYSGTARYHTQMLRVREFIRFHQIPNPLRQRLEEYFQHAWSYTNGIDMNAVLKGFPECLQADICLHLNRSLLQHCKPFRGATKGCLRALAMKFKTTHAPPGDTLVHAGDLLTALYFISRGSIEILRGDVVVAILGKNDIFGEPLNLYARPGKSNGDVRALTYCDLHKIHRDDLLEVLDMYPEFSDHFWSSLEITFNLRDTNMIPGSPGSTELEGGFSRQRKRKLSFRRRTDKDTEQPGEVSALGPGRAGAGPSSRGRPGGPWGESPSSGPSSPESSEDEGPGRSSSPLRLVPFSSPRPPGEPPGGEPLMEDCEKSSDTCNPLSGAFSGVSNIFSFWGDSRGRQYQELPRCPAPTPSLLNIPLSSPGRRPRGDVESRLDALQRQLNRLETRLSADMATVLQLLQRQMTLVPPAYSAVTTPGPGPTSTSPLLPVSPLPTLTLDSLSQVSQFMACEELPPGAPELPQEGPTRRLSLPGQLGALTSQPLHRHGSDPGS
# HMG-CoA Reductase, sequence (P04035 426-888): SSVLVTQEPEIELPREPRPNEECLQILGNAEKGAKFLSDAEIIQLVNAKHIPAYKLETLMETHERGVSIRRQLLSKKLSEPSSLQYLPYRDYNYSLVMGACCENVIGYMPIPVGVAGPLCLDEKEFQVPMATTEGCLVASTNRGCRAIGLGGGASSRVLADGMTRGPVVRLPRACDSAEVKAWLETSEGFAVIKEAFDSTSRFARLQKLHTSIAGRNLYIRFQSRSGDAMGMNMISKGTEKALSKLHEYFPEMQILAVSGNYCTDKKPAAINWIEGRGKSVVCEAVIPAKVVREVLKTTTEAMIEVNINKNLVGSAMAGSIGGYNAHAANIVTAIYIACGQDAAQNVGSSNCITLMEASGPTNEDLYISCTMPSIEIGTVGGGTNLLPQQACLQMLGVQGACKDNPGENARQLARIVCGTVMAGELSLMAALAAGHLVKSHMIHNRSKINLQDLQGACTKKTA
# Monoamine Oxidase MAO-B, sequence (P27338 whole entry): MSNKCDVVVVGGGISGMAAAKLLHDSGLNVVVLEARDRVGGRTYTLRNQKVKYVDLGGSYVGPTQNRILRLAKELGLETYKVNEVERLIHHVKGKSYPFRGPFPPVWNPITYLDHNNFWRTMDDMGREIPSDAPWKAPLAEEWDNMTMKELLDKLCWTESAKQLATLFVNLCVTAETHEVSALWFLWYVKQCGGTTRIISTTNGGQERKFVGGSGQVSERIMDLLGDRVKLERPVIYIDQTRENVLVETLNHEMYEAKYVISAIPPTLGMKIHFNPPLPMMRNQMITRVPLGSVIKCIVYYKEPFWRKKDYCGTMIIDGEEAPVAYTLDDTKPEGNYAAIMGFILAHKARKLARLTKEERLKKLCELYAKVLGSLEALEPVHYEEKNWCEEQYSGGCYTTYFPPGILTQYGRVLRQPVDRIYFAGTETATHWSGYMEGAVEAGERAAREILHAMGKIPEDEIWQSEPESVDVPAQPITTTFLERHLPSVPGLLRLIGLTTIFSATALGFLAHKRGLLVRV
# Insulin, sequence (P15127 27-759): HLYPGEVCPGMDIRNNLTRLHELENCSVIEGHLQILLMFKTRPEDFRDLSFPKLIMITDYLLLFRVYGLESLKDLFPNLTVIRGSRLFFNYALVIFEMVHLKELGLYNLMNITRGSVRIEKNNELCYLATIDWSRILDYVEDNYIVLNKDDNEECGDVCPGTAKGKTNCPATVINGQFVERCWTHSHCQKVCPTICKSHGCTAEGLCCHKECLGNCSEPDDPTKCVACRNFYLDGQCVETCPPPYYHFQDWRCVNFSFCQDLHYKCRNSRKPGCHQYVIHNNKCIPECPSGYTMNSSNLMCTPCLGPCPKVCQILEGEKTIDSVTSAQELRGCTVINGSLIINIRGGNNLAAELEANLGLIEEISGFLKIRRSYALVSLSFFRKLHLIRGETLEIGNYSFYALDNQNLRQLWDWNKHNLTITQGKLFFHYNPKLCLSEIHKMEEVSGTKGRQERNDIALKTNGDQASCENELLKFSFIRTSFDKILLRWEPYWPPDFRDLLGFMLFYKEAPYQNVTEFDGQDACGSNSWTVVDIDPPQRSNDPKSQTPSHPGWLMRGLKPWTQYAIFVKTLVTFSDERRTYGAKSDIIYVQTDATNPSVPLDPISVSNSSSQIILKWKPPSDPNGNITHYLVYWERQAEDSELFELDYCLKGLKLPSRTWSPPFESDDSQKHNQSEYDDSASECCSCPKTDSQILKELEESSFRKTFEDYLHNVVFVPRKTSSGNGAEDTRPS
structure (smiles),measurement,setting,value
"C[C@]12CC[C@H](CC(=O)O)CC1C(O)CC1C2CC[C@]2(C)C(=O)CCC12 (stereo in doubt) [CVie216-salt, 2-(6beta-hydroxy-17-oxoandrostane-3-yl) acetic acid]",diastolic function (in words),STZ diabetic rats; IV infusion,ameliorated diastolic function
same,"overall cardiac function, SV and CO (in words)",STZ diabetic rats; IV infusion,improvement
same,A late filling velocity of mitral inflow,STZ diabetic rats; [6],0.66 ± 0.17 m/s
same,CO cardiac output,STZ diabetic rats; [6],165.45 ± 30.9 mL/min
same,DT deceleration time of E wave,STZ diabetic rats; [6],49.72 ± 12.56 ms
same,DT/E mitral deceleration index,STZ diabetic rats; [6],56.52 ± 16.45 s2/m
same,E early filling velocity of mitral inflow,STZ diabetic rats; [6],0.90 ± 0.13 m/s
same,E/A index of LV function,STZ diabetic rats; [6],1.42 ± 0.28
same,E/DT deceleration slope,STZ diabetic rats; [6],19.76 ± 8.27 m/s2
same,E/e′ index of LV filling pressure,STZ diabetic rats; [6],39.08 ± 5.04
same,FS fractional shortening,STZ diabetic rats; [6],56.29 ± 9.95%
same,HR heart rate,STZ diabetic rats; [6],221 ± 50 beat/min
same,SV stroke volume,STZ diabetic rats; [6],0.76 ± 0.12 ml/beat
same,a′ TDI late relaxation velocity,STZ diabetic rats; [6],25.85 ± 6.98 cm/s
same,e′ TDI early relaxation velocity,STZ diabetic rats; [6],23.1 ± 1.96 cm/s
same,s′ TDI contraction velocity,STZ diabetic rats; [6],22.47 ± 2.45 cm/s
same,A late filling velocity of mitral inflow,STZ diabetic rats; [7],0.68 ± 0.15 m/s
same,CO cardiac output,STZ diabetic rats; [7],181.82 ± 23.75 mL/min
same,DT deceleration time of E wave,STZ diabetic rats; [7],47.46 ± 10.17 ms
same,DT/E mitral deceleration index,STZ diabetic rats; [7],54.8 ± 12.84 s2/m
same,E early filling velocity of mitral inflow,STZ diabetic rats; [7],0.87 ± 0.09 m/s
same,E/A index of LV function,STZ diabetic rats; [7],1.34 ± 0.27
same,E/DT deceleration slope,STZ diabetic rats; [7],19.38 ± 5.39 m/s2
same,E/e′ index of LV filling pressure,STZ diabetic rats; [7],significantly reduced
same,FS fractional shortening,STZ diabetic rats; [7],55.19 ± 7.32%
same,HR heart rate,STZ diabetic rats; [7],225 ± 50 beat/min
same,SV stroke volume,STZ diabetic rats; [7],0.83 ± 0.15 ml/beat
same,a′ TDI late relaxation velocity,STZ diabetic rats; [7],26.66 ± 6.94 cm/s
same,e′ TDI early relaxation velocity,STZ diabetic rats; [7],24.48 ± 2.1 cm/s
same,s′ TDI contraction velocity,STZ diabetic rats; [7],22.68 ± 3.18 cm/s
same,interaction on a panel of receptors (in words),panel of receptors,No significant interaction
same,inhibition at 10 µM,HMG-CoA Reductase,-4%
same,inhibition at 10 µM,Monoamine Oxidase MAO-B,-2%
same,inhibition at 10 µM,[1],13%
same,inhibition at 10 µM,Adrenergic β1,2%
same,inhibition at 10 µM,Androgen (Testosterone),6%
same,% inhib,[2],−20%
same,inhibition at 10 µM,Dopamine D1,13%
same,% inhib,[3],1%
same,% inhib,"GABAA, Muscimol, Central",2%
same,inhibition at 10 µM,Glucocorticoid,-9%
same,% inhib,"Imidazoline I2, Central",1%
same,inhibition at 10 µM,Insulin,4%
same,inhibition at 10 µM,Muscarinic M3,-6%
same,inhibition at 10 µM,"Opiate μ (OP3, MOP)",11%
same,% inhib,Phorbol Ester,−7%
same,inhibition at 10 µM,Potassium Channel (KATP),-11%
same,inhibition at 10 µM,hERG potassium channel,0%
same,inhibition at 10 µM,Progesterone PR-B,1%
same,% inhib,[4],12%
same,% inhib,"Sodium Channel, Site 2",−5%
same,inhibition at 10 µM,[5],-4%
same,inhibition at 10 µM,"CYP450, 19 (CYP19)",0%
